In ChEMBL document CHEMBL1145224, “Novel 1beta-methylcarbapenems with isoxazoloethenyl moieties containing carboxylic acid sodium salt” (Bioorg Med Chem Lett, 2005):
In brackets after ≈: the same amount, converted by molar mass.

What was measured:
Moraxella catarrhalis [1] = assay: Minimum inhibitory concentration against Moraxella catarrhalis (n=22); (Range=0.015-0.06); type: functional
Enterobacter cloacae = assay: Minimum inhibitory concentration against Enterobacter cloacae 1321E strain; type: functional
Staphylococcus aureus [2] = assay: Minimum inhibitory concentration against […] 285 strain; type: functional
[3] = Half life at a single intravenous administration of 5 mg/kg in dog; type: ADME, organism-based, Canis lupus familiaris; parameters: dose 5 mg/kg, route intravenous; details: in vivo
Escherichia coli [4] = assay: Minimum inhibitory concentration against Escherichia coli 1507 E strain; type: functional
Streptococcus pneumoniae [5] = assay: Minimum inhibitory concentration against Streptococcus pneumoniae (n=22); (Range = 0.008-0.25); type: functional
[6] = Area under concentration time at a single intravenous administration of 5 mg/kg in dog; type: ADME, organism-based, Canis lupus familiaris; parameters: dose 5 mg/kg, route intravenous; details: in vivo
Streptococcus pneumoniae [7] = assay: Minimum inhibitory concentration of the compound was determined against Streptococcus pneumoniae (n=22);(Range = 0.008-0.25); type: functional
Streptococcus pyogenes = assay: Minimum inhibitory concentration against Streptococcus pyogenes 308A strain; type: functional
Pseudomonas aeruginosa [8] = assay: Minimum inhibitory concentration against Pseudomonas aeruginosa (n=60); (Range=0.06-128); type: functional
Klebsiella aerogenes = assay: Minimum inhibitory concentration against Klebsiella aerogenes 1522E strain; type: functional
Pseudomonas aeruginosa [9] = assay: Minimum inhibitory concentration against Pseudomonas aeruginosa 1592E strain; type: functional
[10] = Area under concentration time at a single intravenous administration of 20 mg/kg in rat; type: ADME, organism-based; parameters: dose 20 mg/kg, route intravenous; details: in vivo
Staphylococcus aureus [11] = assay: Minimum inhibitory concentration against […] 503 strain; type: functional
Pseudomonas aeruginosa [12] = assay: Minimum inhibitory concentration against was determined against Pseudomonas aeruginosa 9027 strain; type: functional
Escherichia coli [13] = assay: Minimum inhibitory concentration against Escherichia coli 078 strain; type: functional
[14] = Clearance value at a single intravenous administration of 5 mg/kg in dog; type: ADME, organism-based, Canis lupus familiaris; parameters: dose 5 mg/kg, route intravenous; details: in vivo
[15] = Half life at a single intravenous administration of 20 mg/kg in rat; type: ADME, organism-based; parameters: dose 20 mg/kg, route intravenous; details: in vivo
Klebsiella pneumoniae [16] = assay: Minimum inhibitory concentration against Klebsiella pneumoniae (n=30); (Range = 0.015-0.25); type: functional
[17] = Clearance value at a single intravenous administration of 20 mg/kg in rat; type: ADME, organism-based; parameters: dose 20 mg/kg, route intravenous; details: in vivo
Pseudomonas aeruginosa [18] = assay: Minimum inhibitory concentration against Pseudomonas aeruginosa 1771M strain; type: functional
Salmonella typhimurium = assay: Minimum inhibitory concentration against Salmonella Typhimurium; type: functional, Salmonella enterica subsp. enterica serovar Typhimurium; details: Salmonella enterica
Moraxella catarrhalis [19] = assay: Minimum inhibitory concentration against Moraxella catarrhalis (n=22); (Range=0.008-0.06); type: functional
Pseudomonas aeruginosa [20] = assay: Minimum inhibitory concentration against Pseudomonas aeruginosa (n=60); (Range=0.025-128); type: functional
Klebsiella pneumoniae [21] = assay: Minimum inhibitory concentration against Klebsiella pneumoniae (n=30); (Range = 0.03-0.25); type: functional
Moraxella catarrhalis [22] = assay: Minimum inhibitory concentration against Moraxella catarrhalis (n=22); (Range=0.008-0.6); type: functional
Streptococcus pneumoniae [23] = assay: Minimum inhibitory concentration against Streptococcus pneumoniae (n=22); (Range=0.008-1); type: functional
Moraxella catarrhalis [24] = assay: Minimum inhibitory concentration against Moraxella catarrhalis (n=22); (Range = 0.008-0.12); type: functional
Pseudomonas aeruginosa [25] = assay: Minimum inhibitory concentration against Pseudomonas aeruginosa (n=60); (Range=1-128); type: functional
Moraxella catarrhalis [26] = assay: Minimum inhibitory concentration against Moraxella catarrhalis (n=22); (Range=0.008-0.12); type: functional
Klebsiella pneumoniae [27] = assay: Minimum inhibitory concentration against Klebsiella pneumoniae (n=30); (Range = […]); type: functional
Klebsiella pneumoniae [28] = assay: Minimum inhibitory concentration against Klebsiella pneumoniae (n=30); (Range=0.008-1); type: functional
Klebsiella pneumoniae [29] = assay: Minimum inhibitory concentration against Klebsiella pneumoniae (n=30); (Range=0.06-1); type: functional
Moraxella catarrhalis [30] = assay: Minimum inhibitory concentration against Moraxella catarrhalis (n=22); (Range=0.008-0.25); type: functional
Klebsiella pneumoniae [31] = assay: Minimum inhibitory concentration against Klebsiella pneumoniae (n=30); (Range=[…]); type: functional
Pseudomonas aeruginosa [32] = assay: Minimum inhibitory concentration against Pseudomonas aeruginosa (n=60); (Range=0.5-128); type: functional
Streptococcus pneumoniae [33] = assay: Minimum inhibitory concentration against Streptococcus pneumoniae (n=22); (Range = 0.008-0.5); type: functional
Moraxella catarrhalis [34] = assay: microbe, parasite or virus in culture
Pseudomonas aeruginosa [35] = assay: microbe, parasite or virus in culture
Moraxella catarrhalis [36] = assay: Minimum inhibitory concentration against Moraxella catarrhalis (n=22); (Range=0.008-0.03); type: functional
Klebsiella pneumoniae [37] = assay: Minimum inhibitory concentration against Klebsiella pneumoniae (n=30); (Range = 0.015-0.06); type: functional

Row | Compound | MIC (Enterobacter cloacae) [µg/mL] | MIC (Staphylococcus aureus [2]) [µg/mL] | half-life [3] [min] | MIC (Escherichia coli [4]) [µg/mL] | MIC90 (Streptococcus pneumoniae [5]) [µg/mL] | AUC [6] [ng·h/mL] | MIC (Streptococcus pyogenes) [µg/mL] | MIC50 (Pseudomonas aeruginosa [8]) [µg/mL] | MIC90 (Pseudomonas aeruginosa [8]) [µg/mL] | MIC (Klebsiella aerogenes) [µg/mL] | MIC (Pseudomonas aeruginosa [9]) [µg/mL] | AUC [10] [ng·h/mL] | MIC (Staphylococcus aureus [11]) [µg/mL] | MIC (Pseudomonas aeruginosa [12]) [µg/mL] | MIC (Escherichia coli [13]) [µg/mL] | clearance [14] [mL/min/kg] | half-life [15] [min] | clearance [17] [mL/min/kg] | MIC (Pseudomonas aeruginosa [18]) [µg/mL] | MIC (Salmonella typhimurium) [µg/mL] | also measured
1 | C[C@@H](O)[C@H]1C(=O)N2C(C(=O)O)=C(S[C@@H]3CN[C@H](/C=C/c4cc(C(=O)[O-])no4)C3)[C@H](C)[C@H]12.[Na+] | 0.025 | 0.195 | 41 | 0.025 | 0.12 | 14400 | 0.049 | 4 | 64 | 0.049 | 0.195 | 25300 | 0.195 | 0.195 | 0.013 | 6 | 12 | 13 | 0.049 | 0.049 | MIC50 (Moraxella catarrhalis [1]): 0.03 µg/mL; MIC90 (Moraxella catarrhalis [1]): 0.06 µg/mL; MIC50 (Streptococcus pneumoniae [7]): 0.008 µg/mL; MIC50 (Klebsiella pneumoniae [16]): 0.03 µg/mL; MIC90 (Klebsiella pneumoniae [16]): 0.12 µg/mL
2 | C[C@@H](O)[C@H]1C(=O)N2C(C(=O)O)=C(S[C@@H]3CN[C@H](/C=C/c4cc(C(=O)[O-])on4)C3)[C@H](C)[C@H]12.[Na+] | 0.025 | 0.195 | – | 0.025 | – | – | 0.007 | – | – | 0.049 | 0.391 | – | 0.098 | 0.195 | 0.025 | – | – | – | 1.56 | 0.049 | –
3 | CC1C(S[C@@H]2CN[C@H](/C=C/c3ccno3)C2)=C(C(=O)O)N2C(=O)[C@H]([C@@H](C)O)[C@@H]12 (single isomer, unassigned) | 0.025 (≈ 0.0617 µM) | 0.049 (≈ 0.121 µM) | 23 | 0.025 (≈ 0.0617 µM) | 0.12 (≈ 0.296 µM) | 3100 | 0.004 (≈ 0.00986 µM) | – | – | 0.049 (≈ 0.121 µM) | 0.195 (≈ 0.481 µM) | 18900 | 0.098 (≈ 0.242 µM) | 0.195 (≈ 0.481 µM) | 0.025 (≈ 0.0617 µM) | 27 | 16 | 18 | 0.098 (≈ 0.242 µM) | 0.049 (≈ 0.121 µM) | MIC50 (Moraxella catarrhalis [19]): 0.015 µg/mL (≈ 0.037 µM); MIC50 (Streptococcus pneumoniae [5]): 0.03 µg/mL (≈ 0.074 µM); MIC50 (Pseudomonas aeruginosa [20]): 8 µg/mL (≈ 19.7 µM); MIC90 (Pseudomonas aeruginosa [20]): 64 µg/mL (≈ 158 µM); MIC50 (Klebsiella pneumoniae [21]): 0.06 µg/mL (≈ 0.148 µM); MIC90 (Klebsiella pneumoniae [21]): 0.12 µg/mL (≈ 0.296 µM); MIC90 (Moraxella catarrhalis [22]): 0.03 µg/mL (≈ 0.074 µM)
4 | C[C@@H](O)[C@H]1C(=O)N2C(C(=O)O)=C(S[C@@H]3CN[C@H](C(=O)Nc4cccc(C(=O)O)c4)C3)[C@H](C)[C@H]12 [ERTAPENEM] | – | – | – | – | – | – | – | – | – | – | – | – | – | – | – | – | – | – | – | – | MIC50 (Streptococcus pneumoniae [23]): 0.5 µg/mL (≈ 1.05 µM); MIC90 (Streptococcus pneumoniae [23]): 1 µg/mL (≈ 2.1 µM); MIC50 (Moraxella catarrhalis [24]): 0.015 µg/mL (≈ 0.0315 µM); MIC50 (Pseudomonas aeruginosa [25]): 32 µg/mL (≈ 67.3 µM); MIC90 (Pseudomonas aeruginosa [25]): 128 µg/mL (≈ 269 µM); MIC90 (Moraxella catarrhalis [26]): 0.03 µg/mL (≈ 0.0631 µM); MIC90 (Klebsiella pneumoniae [27]): 0.5 µg/mL (≈ 1.05 µM); MIC50 (Klebsiella pneumoniae [28]): 0.03 µg/mL (≈ 0.0631 µM)
5 | C[C@@H](O)[C@H]1C(=O)N2C(C(=O)O)=C(SCCNC=N)C[C@H]12 [IMIPENEM ANHYDROUS] | 0.098 (≈ 0.327 µM) | 0.013 (≈ 0.0434 µM) | – | 0.098 (≈ 0.327 µM) | – | – | 0.004 (≈ 0.0134 µM) | – | – | 0.195 (≈ 0.651 µM) | 0.781 (≈ 2.61 µM) | – | 0.098 (≈ 0.327 µM) | 0.391 (≈ 1.31 µM) | 0.098 (≈ 0.327 µM) | – | – | – | 0.195 (≈ 0.651 µM) | 0.781 (≈ 2.61 µM) | MIC50 (Klebsiella pneumoniae [29]): 0.12 µg/mL (≈ 0.401 µM); MIC50 (Moraxella catarrhalis [30]): 0.06 µg/mL (≈ 0.2 µM); MIC90 (Klebsiella pneumoniae [31]): 0.5 µg/mL (≈ 1.67 µM); MIC50 (Pseudomonas aeruginosa [32]): 2 µg/mL (≈ 6.68 µM); MIC50 (Streptococcus pneumoniae [33]): 0.12 µg/mL (≈ 0.401 µM); MIC90 (Streptococcus pneumoniae [33]): 0.25 µg/mL (≈ 0.835 µM); MIC90 (Moraxella catarrhalis [34]): 0.06 µg/mL (≈ 0.2 µM); MIC90 (Pseudomonas aeruginosa [35]): 16 µg/mL (≈ 53.4 µM)
6 | C[C@@H](O)[C@H]1C(=O)N2C(C(=O)O)=C(S[C@@H]3CN[C@H](C(=O)N(C)C)C3)[C@H](C)[C@H]12 [MEROPENEM] | 0.025 (≈ 0.0652 µM) | 0.195 (≈ 0.509 µM) | – | 0.025 (≈ 0.0652 µM) | – | 11600 | 0.013 (≈ 0.0339 µM) | 2 (≈ 5.22 µM) | 16 (≈ 41.7 µM) | 0.049 (≈ 0.128 µM) | 0.195 (≈ 0.509 µM) | 6380 | – | 0.195 (≈ 0.509 µM) | 0.025 (≈ 0.0652 µM) | 7 | – | 52 | 0.049 (≈ 0.128 µM) | 0.049 (≈ 0.128 µM) | MIC50 (Moraxella catarrhalis [36]): 0.008 µg/mL (≈ 0.0209 µM); MIC90 (Moraxella catarrhalis [36]): 0.008 µg/mL (≈ 0.0209 µM); MIC50 (Streptococcus pneumoniae [33]): 0.5 µg/mL (≈ 1.3 µM); MIC90 (Streptococcus pneumoniae [33]): 0.5 µg/mL (≈ 1.3 µM); MIC50 (Klebsiella pneumoniae [37]): 0.03 µg/mL (≈ 0.0782 µM); MIC90 (Klebsiella pneumoniae [37]): 0.06 µg/mL (≈ 0.156 µM)
